Values quoted from earlier work in PubChem BioAssay AID1259410 (Chemical Carcinogenesis Research Information System (CCRIS), 2018).

Test system: rodent tumor promotion studies, tumor incidence
Assay: CCRIS tumor promotion studies
Conditions: Route [Carcinogen]: DERMAL, Route [Promoter]: DERMAL, Species: MOUSE

SMILES: CCCCCCCCCCCCCC(=O)O[C@@H]1[C@@H](C)[C@@]2(O)[C@@H](C=C(CO)C[C@]3(O)C(=O)C(C)=C[C@@H]23)[C@@H]2C(C)(C)[C@]12OC(C)=O
- outcome (Carcinogen: DIBENZO[A,L]PYRENE, 191-30-0, Doses [Carcinogen]: 0.25, 1 NMOL IN 100 µL ACETONE, Doses [Promoter]: 2.16 NMOL IN 100 µL ACETONE 2/WK FOR 27 WK BEGINNING 1 WK POST CARCINOGEN DOSE (STUDY DURATION: 28 WK), Strain/Sex: SENCAR/FEMALE): skin: tumor
- outcome (Carcinogen: DIBENZO[A,L]PYRENE, 191-30-0, Doses [Carcinogen]: 1.33, 4, 12 NMOL IN 100 ML ACETONE ONCE, Doses [Carcinogen]: 1.33, 4, 12 NMOL IN 100 ML ACETONE ONCE, Doses [Promoter]: 1.62 NMOL IN 100 ML ACETONE 2/WK FOR 28 WK BEGINNING 1 WK POST CARCINOGEN DOSE (STUDY DURATION: 30 WK), Strain/Sex: SENCAR/FEMALE): skin: tumor
- outcome (Carcinogen: DIBENZO[A,L]PYRENE, 191-30-0, Doses [Carcinogen]: 4, 20, 100 NMOL IN 100 µL ACETONE ONCE, Doses [Carcinogen]: 4, 20, 100 NMOL IN 100 µL ACETONE ONCE, Doses [Promoter]: 3.24 NMOL/100 µL ACETONE 2/WK BEGINNING 2 WK POST CARCINOGEN DOSE AND CONTINUING FOR 24 WK (STUDY DURATION: 27 WK), Strain/Sex: SENCAR/FEMALE): skin: tumor
- outcome (Carcinogen: DIBENZO[A,L]PYRENE, 191-30-0, Doses [Carcinogen]: 33.3, 100, 300 NMOL IN 100 µL ACETONE ONCE, Doses [Carcinogen]: 33.3, 100, 300 NMOL IN 100 µL ACETONE ONCE, Doses [Promoter]: 3.24 NMOL/100 µL ACETONE ONCE 1 WK POST CARCINOGEN DOSE THEN 2/WK BEGINNING 3 WK LATER AND CONTINUING FOR 11 WK (STUDY D, Strain/Sex: SENCAR/FEMALE): skin: tumor
- outcome (Carcinogen: DIMETHYLBENZ[A]ANTHRACENE, 57-97-6, Doses [Carcinogen]: 0.2 UMOL IN O.2 ML ACETONE ONCE, Doses [Promoter]: 0, 5 UG IN 0.2 ML ACETONE 3/WK ADMINISTERED 7 D POST CARCINOGEN DOSE AND CONTINUING FOR DURATION OF STUDY (STUDY DURATIO, Strain/Sex: SWISS/FEMALE): skin: tumor, squamous cell papilloma, keratoacanthoma
- outcome (Carcinogen: N-METHYL-N'-NITRO-N-NITROSOGUANIDINE, 70-25-7, Doses [Carcinogen]: 4 UMOL IN 200 µL ACETONE ONCE, Doses [Promoter]: 0, 10 NMOL IN 200 µL ACETONE 2/WK FOR 52 WK BEGINNING 2 WK POST CARCINOGEN DOSE (STUDY DURATION: 52 WK), Strain/Sex: C3H/CB/S/GEN/FEMALE): skin: tumor
- outcome (Carcinogen: N-METHYL-N'-NITRO-N-NITROSOGUANIDINE; 70-25-7; Doses [Carcinogen]: 4 UMOL IN 200 µL ACETONE ONCE; Doses [Promoter]: 0; 10 NMOL IN 200 µL ACETONE 2/WK FOR 52 WK BEGINNING 2 WK POST CARCINOGEN DOSE STUDY DURATION: 52 WK), Strain/Sex: C3H/FEMALE): skin: tumor
- outcome (Carcinogen: PHENOXYOXIRANE, 79526-11-7, Doses [Carcinogen]: 5 UMOL IN 0.2 ML 15% DMSO IN ACETONE ONCE, Doses [Promoter]: 0, 15 NMOL IN 0.1 ML ACETONE ONCE 18-24 HR PRIOR TO CARCINOGEN DOSE THEN BEGINNING 1 WK LATER 2/WK FOR DURATION OF STUDY, Strain/Sex: ICR/FEMALE): skin: papilloma
- outcome (Carcinogen: PHENYL VINYL ETHER, 766-94-9, Doses [Carcinogen]: 5 UMOL IN 0.2 ML 15% DMSO IN ACETONE ONCE, Doses [Promoter]: 0, 15 NMOL IN 0.1 ML ACETONE ONCE 18-24 HR PRIOR TO CARCINOGEN DOSE THEN BEGINNING 1 WK LATER 2/WK FOR DURATION OF STUDY, Strain/Sex: ICR/FEMALE): skin: papilloma
- outcome (Carcinogen: SYN-1,2-DIHYDROXY-3,4-EPOXY-1,2,3,4-TETRAHYDRO-5,6-DIMETHYLCHRYSENE, 139562-15-5, Doses [Carcinogen]: 100 NMOL IN 0.1 ML ACETONE ONCE, Doses [Promoter]: 0, 2.5 UG IN 0.1 ML ACETONE 3/WK FOR 20 WK BEGINNING 10 D POST CARCINOGEN DOSE (STUDY DURATION: 20 WK), Strain/Sex: CD-1/FEMALE): skin: tumor
- outcome (Carcinogen: THIRAM, 137-26-8, Doses [Carcinogen]: 100 MG/KG BW 3/WK FOR 3 WK, Doses [Promoter]: 0, 5 UG IN 100 µL ACETONE 3/WK FOR 51 WK BEGINNING 1 WK POST CARCINOGEN TREATMENT (STUDY DURATION: 54 WK), Strain/Sex: SWISS/FEMALE): skin: tumor
- outcome (Carcinogen: THIRAM, 137-26-8, Doses [Carcinogen]: 100 MG/KG BW IN 100 µL DMSO ONCE, Doses [Promoter]: 5 UG IN 100 µL ACETONE 3/WK BEGINNING 1 WK POST CARCINOGEN DOSE (STUDY DURATION: 52 WK), Strain/Sex: SWISS/MALE): skin: tumor
- outcome (Carcinogen: THIRAM, 137-26-8, Doses [Carcinogen]: 100 MG/KG BW IN 100 µL DMSO ONCE, Doses [Promoter]: 5 UG IN 100 µL ACETONE 3/WK FOR 3 WK BEGINNING 1 WK POST CARCINOGEN DOSE (STUDY DURATION: 52 WK), Strain/Sex: SWISS/FEMALE): skin: tumor
